Key:
[1] = biological target: T1, TDO-expressing HEK293 cell clones (Homo sapiens, UniProt P48775); experiment: Cell based kynurenine assay, TDO-expressing HEK293 cell clones; conditions: HEK293 cells, 24 hours of incubation, geometric mean; read-out: HEK293 TDO Kynurenine GMean IC50 (μM) (Cellular Assay)
T1 construct: expressed in transfected cells; host or cells: HEK293
Summary of the method: (§1)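 HEK293 clones stably transfected with CMV-driven human IDO1 or human TDO were seeded at 2.5×10^4 cells/well and treated with serial compound dilutions for 24 hours. Supernatant kynurenine was measured. % inhibition versus DMSO-cell and media-only controls was fitted by nonlinear regression to give IC50.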

IDO1 = biological target: T2, IDO1 (Homo sapiens, UniProt P14902); experiment: IDO enzymatic assay; type: biochemical; conditions: geometric mean; read-out: IDO1 GMean: IC50 (μM) (Biochemical Assay)
T2 construct: His tag (N); made in house; host or cells: E. coli
T2 sequence (P14902 whole entry): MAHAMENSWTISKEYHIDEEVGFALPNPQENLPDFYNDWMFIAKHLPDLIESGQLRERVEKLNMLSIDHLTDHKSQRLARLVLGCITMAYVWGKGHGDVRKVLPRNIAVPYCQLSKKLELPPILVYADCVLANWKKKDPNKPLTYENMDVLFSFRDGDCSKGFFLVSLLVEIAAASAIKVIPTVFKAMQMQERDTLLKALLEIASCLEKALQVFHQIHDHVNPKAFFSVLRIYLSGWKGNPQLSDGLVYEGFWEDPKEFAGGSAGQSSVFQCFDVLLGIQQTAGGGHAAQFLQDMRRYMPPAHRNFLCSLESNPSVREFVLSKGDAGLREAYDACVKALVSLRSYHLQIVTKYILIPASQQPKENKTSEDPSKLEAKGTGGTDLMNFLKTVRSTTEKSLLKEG
Summary of the method: (§2)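 N-His human enzymes from E. coli in 50 mM sodium phosphate pH 6.5 with ascorbate, catalase, Tween 20. IDO: 6 nM enzyme, 10 μM L-Trp, 5 μM methylene blue, 20 min RT; TDO: 1 nM enzyme, 350 μM L-Trp, 0.4 μM methylene blue, 70 min RT. TCA stop, kynurenine measured; IC50 by nonlinear regression.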

TDO = biological target: T3, TDO (Homo sapiens, UniProt P48775); experiment: TDO enzymatic assay; conditions: geometric mean; read-out: TDO GMean: IC50 (μM) (Biochemical Assay)
T3 construct: His tag (N); made in house; host or cells: E. coli
T3 sequence (P48775 whole entry): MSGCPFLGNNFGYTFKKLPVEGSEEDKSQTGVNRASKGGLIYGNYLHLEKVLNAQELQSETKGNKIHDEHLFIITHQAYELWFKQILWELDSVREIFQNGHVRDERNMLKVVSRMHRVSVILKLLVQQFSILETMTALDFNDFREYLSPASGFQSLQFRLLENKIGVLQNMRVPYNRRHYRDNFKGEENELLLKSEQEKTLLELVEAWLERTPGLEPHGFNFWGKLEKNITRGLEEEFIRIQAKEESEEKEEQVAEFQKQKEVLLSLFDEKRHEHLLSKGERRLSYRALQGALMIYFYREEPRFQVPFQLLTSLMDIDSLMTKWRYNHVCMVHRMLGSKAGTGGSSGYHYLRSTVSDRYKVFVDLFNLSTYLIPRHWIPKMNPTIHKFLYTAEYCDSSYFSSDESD
Summary of the method: as §2

[2] = biological target: T4, IDO1-expressing HEK293 cell clones (Homo sapiens, UniProt P14902); experiment: Cell based kynurenine assay, IDO1-expressing HEK293 cell clones; conditions: HEK293 cells, 24 hours of incubation, geometric mean; read-out: HEK293 IDO1 Kynurenine GMean IC50 (μM) (Cellular Assay)
T4 construct: expressed in transfected cells; host or cells: HEK293
T4 sequence (P14902 whole entry): as the sequence (P14902 whole entry) above
Summary of the method: as §1

T1 sequence (P48775 whole entry): as the sequence (P48775 whole entry) above

Row | Compound | IC50 [1] [µM] | IC50 (IDO1) [µM] | IC50 (TDO) [µM] | IC50 [2] [µM]
1 | O=C(NCCCF)N1CCC(C(F)(F)C(=O)c2c(F)c(Cl)cc3cn[nH]c23)CC1 [Compound P-0043, 4-(2-(5-chloro-6-fluoro-1H-indazol-7-yl)-1,1-difluoro-2-oxoethyl)-N-(3-fluoropropyl)piperidine-1-carboxamide] | > 10 | 0.0001 to 10 | 0.0001 to 10 | 0.0001 to 10
2 | CC(C)(C1CCN(C(=O)NC2CCC2)CC1)C(O)c1cc(Cl)cc2[nH]ncc12 (stereo not drawn) [Compound P-0078, 4-(1-(6-chloro-1H-indazol-4-yl)-1-hydroxy-2-methylpropan-2-yl)-N-cyclobutylpiperidine-1-carboxamide] | 0.0001 to 10 | 0.0001 to 10 | 0.0001 to 10 | 0.0001 to 10
3 | CC(C)(C1CCN(C(=O)NC2(C#N)CC2)CC1)C(O)c1cc(Cl)cc2[nH]ncc12 (stereo not drawn) [Compound P-0119, 4-(1-(6-chloro-1H-indazol-4-yl)-1-hydroxy-2-methylpropan-2-yl)-N-(1-cyanocyclopropyl)piperidine-1-carboxamide] | 0.0001 to 10 | 0.0001 to 10 | 0.0001 to 10 | > 10
4 | CS(=O)(=O)N1CCC2(CC1)CC(O)(c1c(F)c(Cl)cc3cn[nH]c13)C2 [Compound P-0136, 2-(5-chloro-6-fluoro-1H-indazol-7-yl)-7-(methylsulfonyl)-7-azaspiro[3.5]nonan-2-ol] | 0.0001 to 10 | 0.0001 to 10 | 0.0001 to 10 | 0.0001 to 10
5 | O=C(NCCC(F)(F)F)N1CCC(C(F)(F)C(=O)c2c(F)c(Cl)cc3cn[nH]c23)CC1 [Compound P-0039, 4-(2-(5-chloro-6-fluoro-1H-indazol-7-yl)-1,1-difluoro-2-oxoethyl)-N-(3,3,3-trifluoropropyl)piperidine-1-carboxamide] | 0.0001 to 10 | 0.0001 to 10 | 0.0001 to 10 | 0.0001 to 10
6 | CC(C)(C1CCN(C(=O)N2CCS(=O)(=O)CC2)CC1)[C@H](O)c1cc(Cl)cc2cn[nH]c12 [Compound P-0022, (S)-(4-(1-(5-chloro-1H-indazol-7-yl)-1-hydroxy-2-methylpropan-2-yl)piperidin-1-yl)(1,1-dioxidothiomorpholino)methanone] | 0.0001 to 10 | 0.0001 to 10 | 0.0001 to 10 | 0.0001 to 10
7 | CC(C)(C1CCN(C(=O)NCCS(C)(=O)=O)CC1)C(O)c1cc(Cl)cc2[nH]ncc12 (stereo not drawn) [Compound P-0085, 4-(1-(6-chloro-1H-indazol-4-yl)-1-hydroxy-2-methylpropan-2-yl)-N-(2-(methylsulfonyl)ethyl)piperidine-1-carboxamide] | 0.0001 to 10 | 0.0001 to 10 | 0.0001 to 10 | > 10
8 | CCS(=O)(=O)N1CCC(C(C)(C)[C@@H](O)c2cc(Cl)cc3[nH]ncc23)CC1 [Compound P-0148, (R)-1-(6-chloro-1H-indazol-4-yl)-2-(1-(ethylsulfonyl)piperidin-4-yl)-2-methylpropan-1-ol] | 0.0001 to 10 | 0.0001 to 10 | 0.0001 to 10 | > 10
9 | CC(C)(C1CCN(C(=O)CO)CC1)[C@@H](O)c1cc(Cl)cc2[nH]ncc12 [Compound P-0146, (R)-1-(4-(1-(6-chloro-1H-indazol-4-yl)-1-hydroxy-2-methylpropan-2-yl)piperidin-1-yl)-2-hydroxyethan-1-one] | 0.0001 to 10 | 0.0001 to 10 | 0.0001 to 10 | > 10
10 | CCN(CC)CC(=O)N1CCC(C(C)(C)[C@H](O)c2cc(Cl)cc3cn[nH]c23)CC1 [Compound P-0058, (S)-1-(4-(1-(5-chloro-1H-indazol-7-yl)-1-hydroxy-2-methylpropan-2-yl)piperidin-1-yl)-2-(diethylamino)ethan-1-one] | 0.0001 to 10 | 0.0001 to 10 | 0.0001 to 10 | 0.0001 to 10
11 | CS(=O)(=O)N1CC=C(c2cc(Cl)cc3cn[nH]c23)CC1 [Compound P-0098, 5-chloro-7-(1-(methylsulfonyl)-1,2,3,6-tetrahydropyridin-4-yl)-1H-indazole] | 0.0001 to 10 | 0.0001 to 10 | 0.0001 to 10 | 0.0001 to 10
12 | CC(C)(C1CCN(C(=O)CO)CC1)[C@H](O)c1cc(Cl)cc2[nH]ncc12 [Compound P-0145, (S)-1-(4-(1-(6-chloro-1H-indazol-4-yl)-1-hydroxy-2-methylpropan-2-yl)piperidin-1-yl)-2-hydroxyethan-1-one] | 0.0001 to 10 | 0.0001 to 10 | 0.0001 to 10 | > 10
13 | CC(C)(C)OC(=O)N1CCC(C(C)(C)[C@H](O)c2cc(Cl)cc3[nH]ncc23)CC1 [Compound P-0142, tert-butyl (S)-4-(1-(6-chloro-1H-indazol-4-yl)-1-hydroxy-2-methylpropan-2-yl)piperidine-1-carboxylate] | 0.0001 to 10 | 0.0001 to 10 | 0.0001 to 10 | > 10
14 | CC(C)(C1CCN(C(=O)CN2CCCC2)CC1)[C@H](O)c1cc(Cl)cc2cn[nH]c12 [Compound P-0059, (S)-1-(4-(1-(5-chloro-1H-indazol-7-yl)-1-hydroxy-2-methylpropan-2-yl)piperidin-1-yl)-2-(pyrrolidin-1-yl)ethan-1-one] | 0.0001 to 10 | 0.0001 to 10 | 0.0001 to 10 | 0.0001 to 10

Other lines, results leading:

Row | IC50 [1] [µM] | IC50 (IDO1) [µM] | IC50 (TDO) [µM] | IC50 [2] [µM] | Compound
15 | 0.0001 to 10 | 0.0001 to 10 | 0.0001 to 10 | 0.0001 to 10 | CC(C)ONC(=O)N1CCC(C(C)(C)[C@H](O)c2cc(Cl)cc3cn[nH]c23)CC1 [Compound P-0064, (S)-4-(1-(5-chloro-1H-indazol-7-yl)-1-hydroxy-2-methylpropan-2-yl)-N-isopropoxypiperidine-1-carboxamide]
16 | 0.0001 to 10 | 0.0001 to 10 | 0.0001 to 10 | 0.0001 to 10 | CC(C)(C1CCN(C(=O)NOCc2ccccc2)CC1)[C@H](O)c1cc(Cl)cc2cn[nH]c12 [Compound P-0123, (S)-N-(benzyloxy)-4-(1-(5-chloro-1H-indazol-7-yl)-1-hydroxy-2-methylpropan-2-yl)piperidine-1-carboxamide]
17 | 0.0001 to 10 | 0.0001 to 10 | 0.0001 to 10 | 0.0001 to 10 | CC(C)(C1CCN(C(=O)NCc2ccc(F)cn2)CC1)C(O)c1cc(Cl)cc2[nH]ncc12 (stereo not drawn) [Compound P-0117, 4-(1-(6-chloro-1H-indazol-4-yl)-1-hydroxy-2-methylpropan-2-yl)-N-((5-fluoropyridin-2-yl)methyl)piperidine-1-carboxamide]
18 | 0.0001 to 10 | 0.0001 to 10 | 0.0001 to 10 | 0.0001 to 10 | COCCONC(=O)N1CCC(C(C)(C)[C@H](O)c2cc(Cl)cc3cn[nH]c23)CC1 [Compound P-0062, (S)-4-(1-(5-chloro-1H-indazol-7-yl)-1-hydroxy-2-methylpropan-2-yl)-N-(2-methoxyethoxy)piperidine-1-carboxamide]
19 | 0.0001 to 10 | 0.0001 to 10 | 0.0001 to 10 | 0.0001 to 10 | CC(C)(C1CCN(C(=O)NOCC2CC2)CC1)[C@H](O)c1cc(Cl)cc2cn[nH]c12 [Compound P-0600, (S)-4-(1-(5-chloro-1H-indazol-7-yl)-1-hydroxy-2-methylpropan-2-yl)-N-(cyclopropylmethoxy)piperidine-1-carboxamide]
20 | 0.0001 to 10 | 0.0001 to 10 | 0.0001 to 10 | 0.0001 to 10 | CC(C)(C1CCN(C(=O)NCc2ncccn2)CC1)[C@H](O)c1cc(Cl)cc2cn[nH]c12 [Compound P-0027, (S)-4-(1-(5-chloro-1H-indazol-7-yl)-1-hydroxy-2-methylpropan-2-yl)-N-(pyrimidin-2-ylmethyl)piperidine-1-carboxamide]
21 | 0.0001 to 10 | 0.0001 to 10 | 0.0001 to 10 | 0.0001 to 10 | CC(C)(C1CCN(C(=O)NCc2ccncc2)CC1)[C@H](O)c1cc(Cl)cc2cn[nH]c12 [Compound P-0019, (S)-4-(1-(5-chloro-1H-indazol-7-yl)-1-hydroxy-2-methylpropan-2-yl)-N-(pyridin-4-ylmethyl)piperidine-1-carboxamide]
22 | 0.0001 to 10 | 0.0001 to 10 | 0.0001 to 10 | 0.0001 to 10 | CC(C)(C1CCN(C(=O)NO)CC1)[C@H](O)c1cc(Cl)cc2cn[nH]c12 [Compound P-0122, (S)-4-(1-(5-chloro-1H-indazol-7-yl)-1-hydroxy-2-methylpropan-2-yl)-N-hydroxypiperidine-1-carboxamide]
23 | 0.0001 to 10 | 0.0001 to 10 | 0.0001 to 10 | 0.0001 to 10 | C[C@H](O)C(=O)N1CCC(C(C)(C)[C@H](O)c2cc(Cl)cc3cn[nH]c23)CC1 [Compound P-0124, (S)-1-(4-((S)-1-(5-chloro-1H-indazol-7-yl)-1-hydroxy-2-methylpropan-2-yl)piperidin-1-yl)-2-hydroxypropan-1-one]
24 | 0.0001 to 10 | 0.0001 to 10 | 0.0001 to 10 | 0.0001 to 10 | CC(C)(C1CCN(C(=O)N[C@H]2CCC[C@H]2O)CC1)[C@H](O)c1cc(Cl)cc2cn[nH]c12 [Compound P-0025, 4-((S)-1-(5-chloro-1H-indazol-7-yl)-1-hydroxy-2-methylpropan-2-yl)-N-((1S,2R)-2-hydroxycyclopentyl)piperidine-1-carboxamide]

From US11149011B2, “Compounds and methods for IDO and TDO modulation, and indications therefor” (Plexxikon Inc., priority 2018, dated 2021)
